Consider four compounds from patent US20050153923A1, “Targeted drug delivery using EphA2 or EphA4 binding moieties” (priority 2003, published 2005).

“Also recorded” adds a separate entry of the source.

One data set deals with EphA2. Put plainly: EphA2 expression in MDA-MB-231 cells after antisense transfection (Western blot). It counts as cell-based. The conditions noted are these: 2 μg/ml oligonucleotide, 24 hours.
For a further data set, the system named is MDA-MB-231 cells. As to the kind of experiment: Soft agar colonization of MDA-MB-231 cells after antisense transfection. It counts as cell-based. How it is done:
Monolayers of MDA-MB-231 cells were transfected with 2 μg/ml of EphA2 antisense or inverse antisense (IAS) oligonucleotides at 37° C. for 24 hours. […] The membranes were stripped and reprobed with paxillin antibodies as a loading control (B). The relative mobility of molecular mass standards is shown on the left of panels A and B. (C) MDA-MB-231 cell monolayers, treated with antisense oligonucleotides as detailed above, were suspended in soft agar for 7 days before microscopic analysis of colony formation. […] Results are reported as colonies per high-powered field (HPF).
An antisense oligonucleotide-based approach that decreased EphA2 expression in tumor cells independent of EphA2 activation was developed. […] Inverted antisense oligonucleotides (5′-[…]-3′; SEQ ID NO:109) provided a control. The cells were transfected with oligonucleotides (2 μg/ml) using Lipofectamine PLUS Reagent (Life Technologies, Inc.) according to the manufacturer's protocol. Twenty-four hours post-transfection, the cells were divided. Half of the cells were seeded into soft agar, and the remaining cells were extracted and subjected to Western blot analysis.
MDA-MB-231 cells were suspended in soft agar. […] Colony formation was scored microscopically using an Olympus CK-3 inverted phase-contrast microscope outfitted with a 40× objective. Clusters containing at least three cells were scored as a positive. […]

In data set [1] the test system is MCF-7^EphA2 cells. As to the kind of experiment: Soft agar colonization of MCF-7^EphA2 cells. The class given is cell-based. The conditions noted are these: TAM 1 μM, EA2 10 μg/ml. The method, then: (B) MCF-7 (circles) or MCF-7^EphA2 cells (squares) were implanted into the mammary fatpad (n=15 mice per group) in the presence of supplemental estrogen.
MCF-7^EPhA2 cells were incubated in the presence of 3 μg/ml of EA2 for the time indicated prior to sample extraction and Western blot analyses with an EphA2-specific antibody (D7). (B) The membrane was stripped and re-probed with a β-catenin-specific antibody as a loading control.
(§1) Growth assays were conducted as follows. MCF-7^neo (control cells) or MCF7^EphA2 cells were seeded in 96-well plates. […] Colony formation in soft agar was performed as previously described (Zelinski et al., 2001, Cancer Res. 61: 2301-6) and scored microscopically, defining clusters of at least three cells as a positive. The data represent the average of ten separate high-power microscopic fields from each sample and representative of at least three separate experiments. Error bars represent the standard error of the mean of at least three different experiments as determined using Microsoft Excel software.
Growth MCF-7^EphA2 cells which had decreased EphA2 expression levels was assayed in soft agar.

For data set [2], the system named is MCF-7^EphA2 cells. As to the kind of experiment: Tumorigenic potential of MCF-7^EphA2 vs control cells in mammary fat pad of athymic mice under tamoxifen. The class given is in vivo. The conditions noted are these: tamoxifen 1 mg oral gavage 6 days per week, from 17 days post-implantation; supplemental estrogen; FIG. 11B. The method, then: (B) MCF-7 (circles) or MCF-7^EphA2 cells (squares) were implanted into the mammary fatpad (n=15 mice per group) in the presence of supplemental estrogen. […] Tumor volume of tamoxifen treated (black circles and squares) and saline treated (white circles and squares) animals was measured at the indicated time.
Consistent with increased soft agar colonization, orthotopically implanted MCF-7^EphA2 cells formed larger, more rapidly growing tumors in vivo. Six to eight week-old athymic (nu/nu) mice were purchased from Harlan Sprague Dawley (Indianapolis, Ind.). When indicated, a controlled release estradiol pellet (0.72 mg 17β-estradiol, 60-day formulation) was injected subcutaneously via a sterile 14-gauge trocar 24 hours prior to tumor implantation and pellets were replaced every 60 days for those experiments spanning>60 days in duration. 1×10^6 MCF-7^neo or MCF7^EphA2 cells were injected into the mammary fat pad under direct visualization.

The test system of a further data set is control MCF-7 cells. Put plainly: Soft agar colonization of control MCF-7 cells. The class given is cell-based. The conditions noted are these: TAM 1 μM; EA2 10 μg/ml; FIG. 13C. The method, then: as §1, with “software. […]” for “software.”

As for “5′-CCAGCAGTACCGCTTCCTTGCCCTGCGGCCG-3′ (all phosphorothioate, sugars by position and methylation of C not given here; listed as Homo Sapiens) [EphA2 antisense oligonucleotides, phosphorothioate-modified antisense oligonucleotides unique to EphA2]”, the “EphA2 expression / protein level after oligonucleotide transfection” value in the data set on EphA2 is given as “selectively decreased EphA2 expression in MDA-MB-231 cells; also recorded: decreases EphA2 protein levels”. Also, the “Decrease of soft agar colonization vs matched controls” value in the data set with MDA-MB-231 cells (2 μg/ml oligonucleotide, 7 days in soft agar, FIG. 14C) was “at least 60%”. Further, the “Colony formation in soft agar vs inverted antisense control” value with MDA-MB-231 cells (P<0.002) is “significantly impaired”.
With “5′-GCCGCGTCCCGTTCCTTCACCATGACGACC-3′ (listed as DNA, chemistry not given here; listed as Homo sapiens) [IAS, inverted antisense control oligonucleotide, reference compound]”, the “EphA2 expression / protein level after oligonucleotide transfection” value in the data set with EphA2 is given as “did not”.
Turning to `C[C@]12CC[C@@H]3c4ccc(O)cc4CC[C@H]3[C@@H]1CC[C@@H]2O` [estradiol, 17β-estradiol, reference compound], the “Soft agar colonization response / tamoxifen sensitivity, MCF-7^EphA2 cells” value in the data set on MCF-7^EphA2 cells [1] (1 μM 17β-estradiol, FIGS. 11A, 13C (11A also MCF-7)) is on record as “overcame the inhibitory effects of tamoxifen”.
For tamoxifen [reference compound], in the data set on MCF-7^EphA2 cells [2], the “Sensitivity of tumorigenic potential to tamoxifen, MCF-7^EphA2 vs control (MCF-7^neo)” value is recorded as “less sensitive to tamoxifen; also recorded: lower inhibitory effects of tamoxifen on MCF-7^EphA2 relative to control cells”. Further, in the data set on MCF-7^EphA2 cells [1] (14 days), the “Inhibition / decrease of soft agar colonization, MCF-7^EphA2 cells” value is 25%. Moreover, the “Soft agar colonization response, control MCF-7 cells” value in the data set on control MCF-7 cells was “sensitive to tamoxifen”.
